Measurements: patent publication US20240090547A1, “SWEETENER COMPOSITIONS COMPRISING MOGROSIDES AND USES THEREOF” (Firmenich Incorporated, priority 2021, published 2024)

Assays:
Type in all cases: in vivo, human
[1] = tested on: expert panelists; test: Expert panelists' comparison of mogrosides with stevia; details: 'Examples 4 and 5', in words
[2] = tested on: panel of flavorists; test: Additional sensory testing for lemon-flavored (lemon-lime) beverage, flavorist panel; details: 600 ppm mogrosides, 0 to 10 scale, letter in parentheses = Duncan's test group; for Sweet Linger: aftertaste, after expectoration; for Bitterness / Mouthfeel/Thickness / Peak Sweetness / Upfront Sweetness: in-mouth
Experimental: A panel of flavorists at three locations evaluated lemon-lime beverage various mogrosides at a concentration of 600 ppm mogrosides for in-mouth attributes (peak sweetness, upfront sweetness, bitterness, and mouthfeel/thickness) and aftertaste attributes (sweet taste linger), on a 0 to 10 scale. The in-mouth attributes were evaluated while holding the sample in the mouth, while the aftertaste attributes were evaluated after expectoration.

[3] = tested on: panel of flavorists; test: Additional sensory testing for vanilla milk, flavorist panel; details: 400 ppm mogrosides, 0 to 10 scale, letter in parentheses = Duncan's test group; for Sweet Linger: aftertaste, after expectoration; for Bitterness / Mouthfeel/Thickness / Peak Sweetness / Upfront Sweetness: in-mouth
Experimental: A panel of flavorists at three locations evaluated vanilla milk containing various mogrosides at a concentration of 400 ppm mogrosides for in-mouth attributes (peak sweetness, upfront sweetness, bitterness, and mouthfeel/thickness) and aftertaste attributes (sweet taste linger), on a 0 to 10 scale. The in-mouth attributes were evaluated while holding the sample in the mouth, while the aftertaste attributes were evaluated after expectoration. The data was analyzed using Duncan's new multiple range test and the scores are provided in the data below in parentheses.

| Compound | bitter aftertaste compared with stevia [1] | licorice aftertaste compared with stevia [1] | mouthfeel compared with stevia [1] | Sweet Linger [2] | Bitterness [2] | Mouthfeel/Thickness [2] | Peak Sweetness [2] | Upfront Sweetness [2] | Sweet Linger [3] | Bitterness [3] | Mouthfeel/Thickness [3] | Peak Sweetness [3] | Upfront Sweetness [3] |
| --- | --- | --- | --- | --- | --- | --- | --- | --- | --- | --- | --- | --- | --- |
| C[C@H](CC[C@@H](O[C@@H]1O[C@H](CO[C@@H]2O[C@H](CO)[C@@H](O)[C@H](O)[C@H]2O)[C@@H](O)[C@H](O)[C@H]1O[C@@H]1O[C@H](CO)[C@@H](O)[C@H](O)[C@H]1O)C(C)(C)O)[C@H]1CC[C@@]2(C)[C@@H]3CC=C4[C@@H](CC[C@H](O[C@@H]5O[C@H](CO)[C@@H](O[C@@H]6O[C@H](CO)[C@@H](O)[C@H](O)[C@H]6O)[C@H](O)[C@H]5O)C4(C)C)[C@]3(C)[C@H](O)C[C@]12C [Isomogroside V] | lower bitter aftertaste | lower licorice aftertaste | better mouthfeel | 4.857 (ab) | 2.286 (a) | 2.571 (b) | 5.571 (bc) | 4.000 (b) | 4.625 (b) | 0.875 (b) | 4.875 (ab) | 6.188 (b) | 5.125 (b) |
| C[C@H](CC[C@@H](O[C@@H]1O[C@H](CO[C@H]2O[C@H](CO)[C@@H](O)[C@H](O)[C@H]2O)[C@@H](O)[C@H](O)[C@H]1O[C@@H]1O[C@H](CO)[C@@H](O)[C@H](O)[C@H]1O)C(C)(C)O)[C@H]1CC[C@@]2(C)[C@]3(C)CC=C4[C@@H](CC[C@H](O[C@@H]5O[C@H](CO)[C@@H](O)[C@H](O)[C@H]5O)C4(C)C)[C@]3(C)[C@H](O)C[C@]12C [Siratose] | lower bitter aftertaste | lower licorice aftertaste | better mouthfeel | 6.143 (a) | 1.357 (a) | 4.143 (a) | 8.429 (a) | 6.571 (a) | 6.375 (a) | 1.750 (a) | 5.375 (a) | 8.000 (a) | 6.625 (a) |
| Isomogroside IVE | lower bitter aftertaste | lower licorice aftertaste | better mouthfeel | 3.429 (c) | 1.857 (a) | 2.714 (b) | 4.857 (c) | 3.571 (b) | 4.563 (b) | 1.313 (ab) | 4.125 (b) | 5.938 (c) | 5.125 (b) |
